EPA's CvTdb concentration-time database

Columns and labels:
Rat [1] = assay: concentration in plasma after dosing; conditions: dosed: 2-Hydroxy-4-methoxybenzophenone, 500 mg/kg, oral, Male, F344
Mouse [2] = assay: concentration in plasma after dosing; conditions: 3 h; dosed: 2-Hydroxy-4-methoxybenzophenone; 50 mg/kg; iv; Female; B6C3F1
Rat [3] = assay: concentration in plasma after dosing; conditions: dosed: 2-Hydroxy-4-methoxybenzophenone, 100 mg/kg, oral, Male, F344
Mouse [4] = assay: concentration in plasma after dosing; conditions: 10 min; dosed: 2-Hydroxy-4-methoxybenzophenone; 500 mg/kg; oral; Female; B6C3F1
Mouse [5] = assay: concentration in plasma after dosing; conditions: 2 h; dosed: 2-Hydroxy-4-methoxybenzophenone; 50 mg/kg; iv; Female; B6C3F1
Rat [6] = assay: concentration in plasma after dosing; conditions: dosed: 2-Hydroxy-4-methoxybenzophenone, 8 mg/kg, iv, Female, F344
Rat [7] = assay: concentration in plasma after dosing; conditions: dosed: Nitrite, 40 mg/kg, oral, Female, F344
Rat [8] = assay: concentration in plasma after dosing; conditions: 2 min; dosed: Nitrite; 80 mg/kg; oral; Female; F344
Rat [9] = assay: concentration in plasma after dosing; conditions: 0.5 h; dosed: Nitrite; 80 mg/kg; oral; Female; F344
Rat [10] = assay: concentration in plasma after dosing; conditions: dosed: Nitrite, 80 mg/kg, oral, Female, F344
Rat [11] = assay: concentration in kidney after dosing; conditions: 192 h; dosed: Perfluorooctanoic acid; 12 mg/kg; oral; Male; Harlan Sprague Dawley
Rat [12] = assay: concentration in plasma after dosing; conditions: dosed: 678-39-7, 12 mg/kg, iv, Male, F344
Rat [13] = assay: concentration in plasma after dosing; conditions: dosed: 678-39-7, 12 mg/kg, iv, Male, F344; remark: listed apart in the source
Rat [14] = assay: concentration in brain after dosing; conditions: 6 h; dosed: Perfluorooctanoic acid; 12 mg/kg; oral; Male; Harlan Sprague Dawley
Rat [15] = assay: concentration in brain after dosing; conditions: 24 h; dosed: Perfluorooctanoic acid; 12 mg/kg; oral; Male; Harlan Sprague Dawley
Rat [16] = assay: concentration in plasma after dosing; conditions: dosed: 678-39-7, 12 mg/kg, iv, Male, F344; remark: listed apart in the source
Rat [17] = assay: concentration in brain after dosing; conditions: 6 h; dosed: Perfluorooctanoic acid; 12 mg/kg; oral; Male; Harlan Sprague Dawley; remark: listed apart in the source
Rat [18] = assay: concentration in plasma after dosing; conditions: 0.25 h; dosed: 678-39-7; 12 mg/kg; iv; Male; F344
Rat [19] = assay: concentration in kidney after dosing; conditions: 6 h; dosed: Perfluorooctanoic acid; 80 mg/kg; oral; Female; Harlan Sprague Dawley
Rat [20] = assay: concentration in liver after dosing; conditions: 1 h; dosed: Fluorotelomer alcohol 8+2; 24 mg/kg; oral; Male; Harlan Sprague Dawley
Rat [21] = assay: concentration in plasma after dosing; conditions: dosed: 678-39-7, 12 mg/kg, iv, Male, F344; remark: listed apart in the source
Rat [22] = assay: concentration in plasma after dosing; conditions: dosed: Potassium Perfluorobutane Sulfonate, 4 mg/kg, oral, Male, Harlan Sprague Dawley
Rat [23] = assay: concentration in brain after dosing; conditions: 3 h; dosed: Potassium Perfluorobutane Sulfonate; 20 mg/kg; oral; Male; Harlan Sprague Dawley
Rat [24] = assay: concentration in plasma after dosing; conditions: dosed: Potassium Perfluorobutane Sulfonate, 4 mg/kg, oral, Male, Harlan Sprague Dawley; remark: listed apart in the source
Rat [25] = assay: concentration in plasma after dosing; conditions: dosed: Potassium Perfluorobutane Sulfonate, 4 mg/kg, iv, Male, F344
Rat [26] = assay: concentration in plasma after dosing; conditions: dosed: Potassium Perfluorobutane Sulfonate, 20 mg/kg, oral, Male, Harlan Sprague Dawley
Rat [27] = assay: concentration in plasma after dosing; conditions: dosed: Potassium Perfluorobutane Sulfonate, 4 mg/kg, oral, Male, Harlan Sprague Dawley; remark: listed apart in the source
Rat [28] = assay: concentration in plasma after dosing; conditions: 1 h; dosed: Potassium Perfluorobutane Sulfonate; 4 mg/kg; iv; Female; Harlan Sprague-Dawley
Rat [29] = assay: concentration in kidney after dosing; conditions: 1 h; dosed: Potassium Perfluorobutane Sulfonate; 20 mg/kg; oral; Male; Harlan Sprague Dawley
Rat [30] = assay: concentration in kidney after dosing; conditions: 6 h; dosed: Potassium Perfluorobutane Sulfonate; 20 mg/kg; oral; Female; Harlan Sprague Dawley
Rat [31] = assay: concentration in plasma after dosing; conditions: 1.5 h; dosed: Potassium Perfluorobutane Sulfonate; 4 mg/kg; iv; Male; F344
Rat [32] = assay: concentration in plasma after dosing; conditions: 1 h; dosed: Potassium Perfluorobutane Sulfonate; 4 mg/kg; iv; Male; F344
Rat [33] = assay: concentration in kidney after dosing; conditions: 1 h; dosed: Potassium Perfluorobutane Sulfonate; 20 mg/kg; oral; Female; Harlan Sprague Dawley
rat [34] = assay: amount in expired air after dosing (umol); conditions: dosed: methanol, 100 mg/kg, iv, male, CDF(F344)/CrlBR

COc1ccc(C(=O)c2ccccc2)c(O)c1 [2-Hydroxy-4-methoxybenzophenone]
Conditions | concentration in plasma [µg/mL]
Rat [1], 2.5 min | 0.0064
Rat [1], 4 h | 0.578
Rat [3], 0.25 h | 0.0889
Rat [3], 4 h | 0.0261
Rat [6], 2 h | 0.111
Rat [6], 10 min | 2.56

Conditions | concentration in plasma [µg/mL]
Mouse [2] | 0.149
Mouse [4] | 0.687
Mouse [5] | 0.317

O=N[O-] [Nitrite]
concentration in plasma [µg/mL]
Conditions | 0.5 h | 1 h | 2 h | 4 h
Rat [7] | – | 4.3 | 1.8 | –
Rat [10] | 5.2 | – | – | 2.3

Conditions | concentration in plasma [µg/mL]
Rat [8] | 2.9
Rat [9] | 8.9

O=C(O)C(F)(F)C(F)(F)C(F)(F)C(F)(F)C(F)(F)C(F)(F)C(F)(F)F [Perfluorooctanoic acid]
Conditions | concentration in brain [ng/g] | concentration in kidney [ng/g] | concentration in liver [ng/g] | concentration in plasma [ng/mL]
Rat [11] | – | 21000 | – | –
Rat [14] | 1350 | – | – | –
Rat [15] | 1210 | – | – | –
Rat [17] | 1290 | – | – | –
Rat [18] | – | – | – | 176
Rat [19] | – | 178000 | – | –
Rat [20] | – | – | 535 | –

Conditions | concentration in plasma [ng/mL]
Rat [12], 3 h | 485
Rat [12], 5 min | 58.3
Rat [13], 0.75 h | 332
Rat [13], 12 h | 524
Rat [16], 0.75 h | 295
Rat [16], 12 h | 505
Rat [21], 0.25 h | 102
Rat [21], 24 h | 607

O=S(=O)([O-])C(F)(F)C(F)(F)C(F)(F)C(F)(F)F.[K+] [Potassium Perfluorobutane Sulfonate]
Conditions | concentration in plasma [ng/mL]
Rat [22], 1 h | 14800
Rat [22], 24 h | 603
Rat [24], 0.5 h | 7030
Rat [24], 9 h | 5080
Rat [25], 3 h | 429
Rat [25], 5 min | 27500
Rat [26], 0.25 h | 24800
Rat [26], 24 h | 848
Rat [27], 1 h | 13800
Rat [27], 24 h | 245

Conditions | concentration in brain [ng/g] | concentration in kidney [ng/g] | concentration in plasma [ng/mL]
Rat [23] | 552 | – | –
Rat [28] | – | – | 5120
Rat [29] | – | 22700 | –
Rat [30] | – | 3360 | –
Rat [31] | – | – | 2130
Rat [32] | – | – | 17700
Rat [33] | – | 21100 | –

CO [methanol]
rat [34]
Conditions | amount in expired air
0.5482 h | 3.95
1.003 h | 4.75
1.458 h | 5.56
1.963 h | 7.78
2.999 h | 10.5
4.439 h | 14.9
5.98 h | 17.6
8.026 h | 18.8
10.01 h | 19.4
12.02 h | 20.1
15.07 h | 19.5
